Measured values as given in patent US20210188856A1, “CRYSTAL FORM OF HYDROCHLORIDE OF PYRAZOLOHETEROARYL DERIVATIVE AND PREPARATION METHOD” (JIANGSU HENGRUI MEDICINE CO., LTD., priority 2018, published 2021).

Assays:
[1] = system: peripheral blood mononuclear cells (PBMC); assay: Stimulation of IFN-α secretion from PBMC; type: cell-based, human; conditions: 24 hours, lowest concentration giving cytokine level at least 3 times the minimum detection limit
Description: The ability of the compound of the present disclosure to stimulate the secretion of IFN-α from PBMC was determined by the following experimental method:
The compound was diluted with pure DMSO to a maximum concentration of 5 mM, and a total of 9 points were obtained by a 4-fold gradient dilution. 4 μL of the compound was then added to 196 μL of RMPI 1640 medium containing 10% FBS and mixed well. 50 μL of the mixture was taken from each well and added to a new 96-well cell culture plate.
All reagents were equilibrated to room temperature. 60 mL of blood and PBS+2% FBS were added to a 250 mL culture flask, gently pipetted, mixed well and diluted. 15 mL of lymphocyte separation solution Ficoll-Paque PREMIUM and then 30 mL of diluted blood were added to a 50 mL PBMC centrifuge tube SepMate™-50. The mixture was centrifuged at 1200 g for 10 minutes at room temperature. The supernatant was taken and then centrifuged at 300 g for 8 minutes. The cells were re-suspended in the RMPI 1640 medium containing 10% FBS and counted, and the number of PBMCs was adjusted to 3.33×10^6 cells/mL. 150 μL of the cell solution was added to the plate added with the compound, and incubated in an incubator at 37° C., 5.0% CO2 for 24 hours.
The cell culture plate was placed in a centrifuge, and centrifuged at 1200 rpm for 10 minutes at room temperature. […]
The plate was read with PHERAStar in the HTRF mode. […]

[2] = target: T1, CYP3A4 (Homo sapiens, UniProt P08684); assay: Inhibition of testosterone metabolite site of CYP3A4 in human liver microsome; type: in vitro ADME
T1 construct: CYP3A4 in human liver microsome; tissue Corning Gentest; host or cells: human liver microsomes
T1 sequence (P08684 whole entry): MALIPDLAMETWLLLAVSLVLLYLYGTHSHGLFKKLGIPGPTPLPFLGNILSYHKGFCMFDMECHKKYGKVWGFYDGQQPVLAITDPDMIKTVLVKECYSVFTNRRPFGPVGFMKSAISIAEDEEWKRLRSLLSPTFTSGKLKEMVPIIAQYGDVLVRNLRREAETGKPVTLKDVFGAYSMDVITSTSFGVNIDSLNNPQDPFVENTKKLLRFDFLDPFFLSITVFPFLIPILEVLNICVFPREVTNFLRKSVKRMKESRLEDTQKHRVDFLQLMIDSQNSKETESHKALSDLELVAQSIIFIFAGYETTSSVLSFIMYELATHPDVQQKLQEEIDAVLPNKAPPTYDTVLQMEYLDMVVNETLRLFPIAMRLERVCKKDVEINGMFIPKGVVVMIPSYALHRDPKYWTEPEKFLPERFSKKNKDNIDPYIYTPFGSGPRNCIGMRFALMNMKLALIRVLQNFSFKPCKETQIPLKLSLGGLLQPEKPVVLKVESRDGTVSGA
Description: The effect of the compound represented by formula (I) on the enzyme activity of testosterone metabolite site of CYP3A4 in human liver microsome was determined by the following experimental method:
100 mM PBS buffer was formulated, which was then used to formulate 2.5 mg/mL microsome solution and 5 mM NADPH solution. The 5× concentration of the compound working solution was diluted with PBS gradient (150, 50, 15, 5, 1.5, 0.15, 0.015, 0 μM). The 5× concentration of ketoconazole working solution was diluted with PBS gradient (150, 50, 15, 5, 1.5, 0.15, 0.015, 0 μM). […] working solution was diluted with PBS to a concentration of 50 μM.
20 μL of the 2.5 mg/mL microsome solution, 20 μL of the 50 μM […] working solution, 20 μL of MgCl2 solution and 20 μL of the compound working solution (150, 50, 15, 5, 1.5, 0.15, 0.015, 0 μM, different reaction systems for each concentration) were taken respectively and mixed well. For the positive control group, the compound was replaced with the same concentration of ketoconazole. The mixture together with the 5 mM NADPH solution was pre-incubated at 37° C. for 5 minutes. […] 80 μL of the supernatant was taken and analyzed by LC-MS/MS.
The data was calculated by Graphpad Prism to obtain the IC50 value of the compound on the testosterone metabolite site of CYP3A4.

For CCCCOc1nc(N)c2cnn(Cc3ccc(CN4CCCC4)cc3)c2n1 [compound represented by formula (I), 6-Butoxy-1-(4-(pyrrolidin-1-ylmethyl)benzyl)-1H-pyrazolo[3,4-d]pyrimidin-4-amine], the “MEC (minimal effective concentration), IFN-α secretion from PBMC” value [1] was 6 nM, the “inhibitory effect on testosterone metabolite site of CYP3A4 (in words)” value [2] was “weak inhibitory effect” and the IC50 ([2]; testosterone probe) was 4 µM.
